# According to PubChem BioAssay (NCI):
#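 Method: 48-hour compound exposure of cells in 96-well plates, five concentrations, linear interpolation of endpoints. GI50 marks 50% less growth. TGI denotes the concentration required for complete inhibition of growth.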 Where a SMILES comes first, the peptide text is derived from it. The star is where a group is joined. Cbz = O=C(OCc1ccccc1)*; Boc = CC(C)(C)OC(=O)*; OBn = c1ccc(CO*)cc1
# Columns and labels:
# Experiment in all cases: inhibition of tumour cell growth, NCI panel, 48 h
# [1] = test system: A549 NSCLC
# [2] = test system: COLO 205 colon
# [3] = test system: EKVX NSCLC
# [4] = test system: HS 578T breast
# [5] = test system: MDA-MB-435
# [6] = test system: NCI-H460 lung
# [7] = test system: NCI/ADR-RES ovarian
# [8] = test system: SNB-75 CNS
# [9] = test system: T-47D breast
# [10] = test system: SF-539 CNS
Structure (SMILES),TGI [1] [µM],TGI [2] [µM],TGI [3] [µM],TGI [4] [µM],TGI [5] [µM],TGI [6] [µM],TGI [7] [µM],TGI [8] [µM],TGI [9] [µM],TGI [10] [µM],GI50 [1] [µM],GI50 [2] [µM],GI50 [3] [µM],GI50 [10] [µM],GI50 [6] [µM],GI50 [8] [µM],GI50 [4] [µM],GI50 [5] [µM],GI50 [7] [µM],GI50 [9] [µM]
CN(C)Cc1cc(O)c(O)c(CN(C)C)c1,> 100,> 100,71.5,> 100,> 100,52.5,65.9,> 100,> 100,,,,,,,,,,,
CN(C)CCSC(=Nc1ccccc1)N1CCCCC1,> 100,28.8,,,,33.8,,59.6,,38.1,,,,,,,,,,
CC[C@H](C)[C@H]1NC(=O)[C@@H](NC(=O)[C@@H](CC(C)C)N(C)CC2CCCN2C(=O)C(C)=O)[C@@H](C)OC(=O)[C@H](Cc2ccc(OC)cc2)N(C)C(=O)C2CCCN2C(=O)[C@H](CC(C)C)NC(=O)[C@@H](C)C(=O)[C@H](C(C)C)OC(=O)C[C@@H]1O (some centres not stated),0.0335,0.00879,0.0509,0.0144,0.0105,0.00812,0.231,0.0108,0.012,,,,,,,,,,,
O=C1C(Br)=CC2(C=C1Br)CCNC1=C2C(=O)c2cccnc2C1=O,30.1,30.1,28.5,45.3,3.33,19.8,49.1,27.1,,20.9,,,,,,,,,,
c1ccc2c(c1)nc(NC1CCCC1)c1[nH]c(C3CCCC3)nc12,58.8,36.5,> 100,,,27.1,,> 100,,21.1,,,,,,,,,,
CC(C)c1ccc(/C=C2\CSCC3=C2NC(=S)NC3c2ccc(C(C)C)cc2)cc1 (configuration not stated),> 100,> 100,> 100,,,> 100,> 100,,> 100,> 100,,,,,,,,,,
COC(=O)C(Cc1ccc(O)cc1)NC(=O)C(CC(=O)OCc1ccccc1)NC(=O)OCc1ccccc1 (configuration not stated) (Cbz-Asp(OBn)-Tyr-OMe; configuration not given here),37,39.4,46.7,69.6,,25.9,,32.6,40,,,,,,,,,,,
O=C(N/N=C/c1cc(Cl)cc(Cl)c1[O-])c1ccccc1O.O=C(N/N=C/c1cc(Cl)cc(Cl)c1[O-])c1ccccc1O.[Ni+2],3.33,11.6,5.28,,,1.73,,7.48,,1.16,0.402,0.794,1.33,0.297,,,,,,
OC1(c2cc3ccccc3s2)CCCCC1,> 100,41.8,71.7,87.5,> 100,> 100,> 100,> 100,,> 100,,,,,,,,,,
CCCNC(C#N)c1ccc(C(C#N)NCCC)cc1 (configuration not stated),> 100,> 100,> 100,> 100,> 100,> 100,> 100,,> 100,> 100,,,,,,,,,,
[N-]=[N+]=NCc1cccc(Nc2cc(=O)[nH]c(=O)[nH]2)c1,> 100,> 100,> 100,> 100,> 100,,> 100,> 100,> 100,> 100,,,,,,,,,,
CC(=O)OC(OC(C)=O)n1cc(C=O)c2ccccc21,> 100,> 100,,> 100,,> 100,> 100,,> 100,,,,,,,,,,,
N#C[S-].[Nd+3].c1ccc(-c2ccccn2)nc1.c1ccc(-c2ccccn2)nc1.c1ccc(-c2ccccn2)nc1,> 100,> 100,> 100,,,37.3,,84.4,,> 100,4.94,18.6,5.78,3.78,4.25,5.69,,,,
COc1cccc(Cc2c3cc(OC)ccc3cc[n+]2C)c1,> 100,,> 100,,,> 100,,> 100,,,,,,,,,,,,
O=C1Nc2cc([N+](=O)[O-])ccc2NC1/C(=N\Nc1ccccc1)C(O)c1cccc([N+](=O)[O-])c1 (configuration not stated),> 100,> 100,> 100,,,> 100,,> 100,,> 100,,,,,,,,,,
C/C(=N\NC(N)=S)C(CN(CC(C)C)CC(C)C)C(=O)Nc1ccc(C)cc1C (configuration not stated),> 100,> 100,> 100,,,> 100,,> 100,,> 100,,,,,,,,,,
Cc1cc(S(=O)(=O)O)c(NC(=O)C(=O)C2C=CCS2(=O)=O)cc1Cl (configuration not stated),> 100,> 100,> 100,,,> 100,,> 100,,> 100,,,,,,,,,,
CC(NC(=O)C(NC(=O)OC(C)(C)C)C(C)C)C(=O)N1CCCC1C(=O)NCC(=O)NC(C(=O)NCC(=O)OCc1ccccc1)C(C)C (configuration not stated) (Boc-VAPGVG-OBn; configuration not given here),,> 100,> 100,,> 100,> 100,> 100,> 100,> 100,> 100,,,,,,,,,,
Cc1cccc(C2=NC(C)(C)C(C)(C)N=C2c2cccc(C)n2)n1,> 100,> 100,> 100,,,> 100,,> 100,,> 100,,,,,,,,,,
Cc1nc2ccc(S(=O)(=O)O)cc2c(=O)n1-c1ccc(C(=O)NN2C(=O)C(Cl)C2c2ccccc2O)cc1 (configuration not stated),> 100,> 100,> 100,> 100,> 100,,> 100,> 100,> 100,> 100,,,,,,,,,,
O=C(NC1CCN(Cc2ccccc2)CC1)c1cc2nc(-c3ccc(Cl)s3)cc(C(F)(F)F)n2n1,> 100,,,> 100,> 100,,> 100,> 100,> 100,> 100,79,,,> 100,,10.5,10.9,> 100,> 100,41.3
O=c1c(C=Nc2ccc([N+](=O)[O-])cc2)c(O)n(-c2ccccc2)c(=O)n1-c1ccccc1,> 100,> 100,> 100,> 100,> 100,> 100,> 100,> 100,> 100,,,,,,,,,,,
CCCCOP1(=O)C=C(C)C(=C(Cl)Cl)C(C)=C1 (configuration not stated),> 41.5,8.97,> 100,,,36,,> 94.4,,83.3,,,,,,,,,,
c1ccc2c(c1)CCc1cc3cc4c(nc3nc1-2)-c1ccccc1CC4,> 100,> 100,> 100,,,> 100,,> 100,,> 100,,,,,,,,,,
